PubChem BioAssay (NCI)
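Five concentrations, 48 hours, 96-well plates. TGI: concentration producing complete growth inhibition.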

Legend:
Assay in all cases: growth of human tumour cells (NCI), 48 h
A498 renal = test system: A498 renal
EKVX NSCLC = test system: EKVX NSCLC
HL-60(TB) leukemia = test system: HL-60(TB) leukemia
HT29 colon = test system: HT29 colon
IGROV1 ovarian = test system: IGROV1 ovarian
K-562 leukemia = test system: K-562 leukemia
KM12 colon = test system: KM12 colon
MALME-3M melanoma = test system: MALME-3M melanoma
MOLT-4 leukemia = test system: MOLT-4 leukemia
NCI-H23 lung = test system: NCI-H23 lung
NCI-H460 lung = test system: NCI-H460 lung
NCI-H522 lung = test system: NCI-H522 lung
NCI/ADR-RES ovarian = test system: NCI/ADR-RES ovarian
OVCAR-4 ovarian = test system: OVCAR-4 ovarian
OVCAR-5 ovarian = test system: OVCAR-5 ovarian
OVCAR-8 ovarian = test system: OVCAR-8 ovarian
SF-268 CNS = test system: SF-268 CNS
SF-295 CNS = test system: SF-295 CNS
SK-MEL-5 melanoma = test system: SK-MEL-5 melanoma
UO-31 renal = test system: UO-31 renal

Compound	TGI (A498 renal) [µM]	TGI (EKVX NSCLC) [µM]	TGI (HL-60(TB) leukemia) [µM]	TGI (HT29 colon) [µM]	TGI (IGROV1 ovarian) [µM]	TGI (K-562 leukemia) [µM]	TGI (KM12 colon) [µM]	TGI (MALME-3M melanoma) [µM]	TGI (MOLT-4 leukemia) [µM]	TGI (NCI-H23 lung) [µM]	TGI (NCI-H460 lung) [µM]	TGI (NCI-H522 lung) [µM]	TGI (NCI/ADR-RES ovarian) [µM]	TGI (OVCAR-4 ovarian) [µM]	TGI (OVCAR-5 ovarian) [µM]	TGI (OVCAR-8 ovarian) [µM]	TGI (SF-268 CNS) [µM]	TGI (SF-295 CNS) [µM]	TGI (SK-MEL-5 melanoma) [µM]	TGI (UO-31 renal) [µM]
O=S(=O)(O)c1cc2ccc1/C=C\c1ccc(cc1S(=O)(=O)O)N=Nc1ccc(c(S(=O)(=O)O)c1)/C=C\c1ccc(cc1S(=O)(=O)O)N=N2	> 100	> 100	> 100	> 100	> 100	> 100	> 100	> 100	> 100	> 100	> 100	> 100	> 100	> 100	> 100	> 100	> 100	> 100	> 100	> 100
COc1nc(C#CCC(C)O)nc(OC)n1 (stereo not given)	77.1	39.3	94.6	> 100	42.3	> 100	82	25.6	> 100	43.4	> 100	34	43.5	36.2	33.3	39.5	69.6	> 100	34.7	37.8
